Assay results from patent US20070276045A1, “Anti-Bacterial Compounds” (priority 2004, published 2007).
Converted amounts (≈) assume the structure as drawn. Where two headings read alike, the source gives them in different places.

Tests used:
C. xerosis DSM 20170 [1] = assay: Bacteriostatic activity (MIC), microtiter broth turbidity; type: cell-based; details: Corynebacterium xerosis, read-out: MIC (minimal inhibitory concentration)
From the text: (§1) The bacteriostatic effects of the compounds of the present invention are compared with those of known anti-bacterial agents against human skin bacteria. Typical bacteria (Corynebacterium and Staphylococcus strains) isolated from the human axilla and commercially available strains are used.
(§2) The different axilla bacteria are isolated from the human axilla according to techniques known in the art, in particular according to standard microbiological practice. They are taxonomically identified by cell morphology, gram-reaction and biochemical tests included in the Api coryne test kit (BioMerieux, France). Strain Staphylococcus epidermidis Ax25 is identified by fatty acid methyl ester analysis (FAME; German type strain collection DSMZ, Germany) . […] The strains are maintained on Tryptic soy broth plates, this standard medium being supplemented with 5 g per Litre of Polyoxyethylene Sorbitan Monooleate (Tween™ 80). Plates are incubated at 36° C. for a period of 48 hours. The bacteria are then swabbed from the plates and suspended in 4 ml of Muller-Hinton broth supplemented with 100 mg of Tween™ 80 per Litre (MH-Tween) and incubated again at 36° C. for 16 hours. Following incubation the bacterial suspensions are diluted in MH-Tween to obtain a final cell density of 10^7 colony forming units per ml. These diluted suspensions of the different test organisms are distributed to different columns of a microtiter plate, 100 μl per well. The test compounds are dissolved in dimethylsulfoxide (DMSO) at various test concentrations and 2.5 μl of these different DMSO solutions are added to the different wells of the test plates. The plates are covered with plastic films and incubated for 24 h at 36° C. with shaking at 250 rpm. The turbidity developing in the microtiter platesi then examined after 24 h to determine microbial growth.

Escherichia coli DSM 682 = assay: as above; type: cell-based; details: read-out: MIC (minimal inhibitory concentration)
From the text: as §1, §2

S. epidermidis Ax 25 [2] = assay: as above; type: cell-based; details: Staphylococcus epidermidis, read-out: MIC (minimal inhibitory concentration)
From the text: as §1, §2

[3] = system: Staphylococcus aureus DSM 799; assay: as above; type: cell-based; details: read-out: MIC (minimal inhibitory concentration)
From the text: as §1, §2

Corynebacterium Ax 7 [4] = assay: as above; type: cell-based, Corynebacterium group G; details: read-out: MIC (minimal inhibitory concentration)
From the text: as §1, §2

Corynebacterium Ax 15 [5] = assay: as above; type: cell-based, Corynebacterium jeikeium; details: read-out: MIC (minimal inhibitory concentration)
From the text: as §1, §2

C. xerosis DSM 20170 [6] = assay: Bactericidal activity (MBC), 60 min contact; type: cell-based; details: Corynebacterium xerosis, DSM20170, 1 h, inoculum completely killed after 60 min incubation, read-out: MBC (minimal bactericidal concentration)
From the text: (§3) The different axilla bacteria are isolated from the human axilla according to techniques known in the art, in particular according to standard microbiological practice. They are taxonomically identified by cell morphology, gram-reaction and biochemical tests included in the Api coryne test kit (BioMerieux, France). Strain Staphylococcus epidermidis Ax25 is identified by fatty acid methyl ester analysis (FAME; German type strain collection DSMZ, Germany) . Escherichia coli DSM 682, Staphylococcus aureus DSM 799, and Corynebacterium xerosis DSM 20170 are obtained from the German-type strain collection. The strains are maintained on Tryptic soy broth plates, this standard medium being supplemented with 5 g per Litre of Polyoxyethylene Sorbitan Monooleate (TweenTM 80). Plates are incubated at 36° C. for a period of 48 hours. The bacteria are then swabbed from the plates and suspended in 4 ml of Muller-Hinton broth supplemented with 100 mg of TweenTM 80 per Litre (MH-Tween) and incubated again at 36° C. for 16 hours. Following incubation the bacterial suspensions are diluted in MH-Tween to obtain a final cell density of 10^7 colony forming units per ml. These diluted suspensions of the different test organisms are distributed to different columns of a microtiter plate, 100 μl per well. The test compounds are dissolved in dimethylsulfoxide (DMSO) at various test concentrations and 2.5 μl of these different DMSO solutions are added to the different wells of the test plates. The plates are covered with plastic films and incubated for 24 h at 36° C. with shaking at 250 rpm. The turbidity developing in the microtiter […] examined after 24 h to determine microbial growth. […] The bacteria are grown, harvested and diluted under the same conditions as described in the example above and added to microtiter plates (100 μl per well), each well containing 2.5 μl of the different DMSO solutions as described above. After 60 min incubation, 0.5 μl of the bacterial culture from each well (corresponding to 5×10^3 cfu in the control treatment) is transferred to a fresh microtiter plate which contained 100 μl per well of fresh medium. The plates are covered with plastic films and incubated for 24 h at 36° C. with shaking at 250 rpm. The turbidity developing in the microtiter plates is then examined after 24 h to determine microbial growth. The minimal concentration of test compounds which completely killed the bacterial inoculum is determined as the minimal bactericidal concentration (MBC).

S. epidermidis Ax 25 [7] = assay: Bactericidal activity (MBC), 60 min contact; type: cell-based; details: Staphylococcus epidermidis, AX25, 1 h, inoculum completely killed after 60 min incubation, read-out: MBC (minimal bactericidal concentration)
From the text: as §3

Corynebacterium Ax 7 [8] = assay: Bactericidal activity (MBC), 60 min contact; type: cell-based, Corynebacterium group G; details: AX7, 1 h, inoculum completely killed after 60 min incubation, read-out: MBC (minimal bactericidal concentration)
From the text: as §3

Corynebacterium Ax 15 [9] = assay: Bactericidal activity (MBC), 60 min contact; type: cell-based, Corynebacterium jeikeium; details: AX15, 1 h, inoculum completely killed after 60 min incubation, read-out: MBC (minimal bactericidal concentration)
From the text: as §3

[10] = DSM20170, C. xerosis DSM 20170, growth inhibited by at least 80%, 24 h at 36° C.
[11] = DSM682, Escherichia coli DSM 682, growth inhibited by at least 80%, 24 h at 36° C.
[12] = AX25, S. epidermidis Ax 25, growth inhibited by at least 80%, 24 h at 36° C.
[13] = DSM799, Staphylococcus aureus DSM 799, growth inhibited by at least 80%, 24 h at 36° C.
[14] = AX7, Corynebacterium Ax 7, growth inhibited by at least 80%, 24 h at 36° C.
[15] = AX15, Corynebacterium Ax 15, growth inhibited by at least 80%, 24 h at 36° C.

MIC (C. xerosis DSM 20170 [1]; [10]) [µg/mL] | MIC (Escherichia coli DSM 682; [11]) [µg/mL] | MIC (S. epidermidis Ax 25 [2]; [12]) [µg/mL] | MIC [3, 13] [µg/mL] | MIC (Corynebacterium Ax 7 [4]; [14]) [µg/mL] | MIC (Corynebacterium Ax 15 [5]; [15]) [µg/mL] | Structure (SMILES) | MBC (C. xerosis DSM 20170 [6]) [µg/mL] | MBC (S. epidermidis Ax 25 [7]) [µg/mL] | MBC (Corynebacterium Ax 7 [8]) [µg/mL] | MBC (Corynebacterium Ax 15 [9]) [µg/mL] | MIC (C. xerosis DSM 20170 [1]; DSM20170, 24 h) [µg/mL] | MIC (Escherichia coli DSM 682; Escherichia coli, DSM682, 24 h) [µg/mL] | MIC (S. epidermidis Ax 25 [2]; AX25, 24 h) [µg/mL] | MIC ([3]; Staphylococcus aureus, DSM799, 24 h) [µg/mL] | MIC (Corynebacterium Ax 7 [4]; Corynebacterium, AX7, 24 h) [µg/mL] | MIC (Corynebacterium Ax 15 [5]; Corynebacterium, AX15, 24 h) [µg/mL]
≤ 19 | ≥ 5000 | 39 (≈ 124 µM) | 55 (≈ 175 µM) | ≤ 19 | 78 (≈ 249 µM) | CCCCCCCCC(CCCCCC)C(=O)NCC(=O)O (stereo not drawn) [compound 11, (2-Hexyl-decanoylamino)-acetic acid] | 313 (≈ 998 µM) | ≥ 5000 | 156 (≈ 498 µM) | 313 (≈ 998 µM) |  |  |  |  |  | 
1250 (≈ 6180 µM) | 2500 (≈ 12400 µM) | 1250 (≈ 6180 µM) | 1250 (≈ 6180 µM) | 1250 (≈ 6180 µM) | 1250 (≈ 6180 µM) | CCCCC(CC)C(=O)OCC(=O)O (stereo not drawn) [compound 7, 2-Ethyl-hexanoic acid carboxymethyl ester] | > 2500 | > 2500 | > 2500 | > 2500 |  |  |  |  |  | 
7 (≈ 22.3 µM) | > 2500 | 10 (≈ 31.8 µM) | 5 (≈ 15.9 µM) | 5 (≈ 15.9 µM) | 5 (≈ 15.9 µM) | CCCCCCCCC(CCCCCC)C(=O)OCC(=O)O (stereo not drawn) [compound 9, 2-Hexyl-decanoic acid carboxymethyl ester] | 80 (≈ 254 µM) | 40 (≈ 127 µM) | 40 (≈ 127 µM) | 80 (≈ 254 µM) |  |  |  |  |  | 

More lines, now with the values behind:

Structure (SMILES) | MIC (C. xerosis DSM 20170 [1]; [10]) [µg/mL] | MIC (Escherichia coli DSM 682; [11]) [µg/mL] | MIC (S. epidermidis Ax 25 [2]; [12]) [µg/mL] | MIC [3, 13] [µg/mL] | MIC (Corynebacterium Ax 7 [4]; [14]) [µg/mL] | MIC (Corynebacterium Ax 15 [5]; [15]) [µg/mL] | MBC (C. xerosis DSM 20170 [6]) [µg/mL] | MBC (S. epidermidis Ax 25 [7]) [µg/mL] | MBC (Corynebacterium Ax 7 [8]) [µg/mL] | MBC (Corynebacterium Ax 15 [9]) [µg/mL] | MIC (C. xerosis DSM 20170 [1]; DSM20170, 24 h) [µg/mL] | MIC (Escherichia coli DSM 682; Escherichia coli, DSM682, 24 h) [µg/mL] | MIC (S. epidermidis Ax 25 [2]; AX25, 24 h) [µg/mL] | MIC ([3]; Staphylococcus aureus, DSM799, 24 h) [µg/mL] | MIC (Corynebacterium Ax 7 [4]; Corynebacterium, AX7, 24 h) [µg/mL] | MIC (Corynebacterium Ax 15 [5]; Corynebacterium, AX15, 24 h) [µg/mL]
CCCCC(CC)COCC(=O)O (stereo not drawn) [compound 4, (2-Ethyl-hexyloxy)-acetic acid] | 884 (≈ 4700 µM) | 2500 (≈ 13300 µM) | 625 (≈ 3320 µM) | 625 (≈ 3320 µM) | 1250 (≈ 6640 µM) | 1250 (≈ 6640 µM) | ≥ 5000 | ≥ 5000 | 2500 (≈ 13300 µM) | ≥ 5000 |  |  |  |  |  | 
CCCCCCCCC(CCCCCC)COCC(=O)O (stereo not drawn) [compound 6, (2-Hexyl-decyloxy)-acetic acid] | 4 (≈ 13.3 µM) | > 2500 | 5 (≈ 16.6 µM) | 5 (≈ 16.6 µM) | 5 (≈ 16.6 µM) | 5 (≈ 16.6 µM) | 40 (≈ 133 µM) | 20 (≈ 66.6 µM) | 20 (≈ 66.6 µM) | 40 (≈ 133 µM) |  |  |  |  |  | 
CCCCCCCCCCCC(=O)OCC(O)CO (stereo not drawn) [C1, Dodecanoic acid 2,3-dihydroxy-propyl ester, reference compound] |  |  |  |  |  |  |  |  |  |  | 320 (≈ 1170 µM) | > 5000 | < 80 | 80 (≈ 292 µM) | 160 (≈ 583 µM) | 1250 (≈ 4560 µM)
CCCCCCC(CCCC)COCC(=O)O (stereo not drawn) [compound 5, (2-Butyl-octyloxy)-acetic acid] | 80 (≈ 327 µM) | > 2500 | 160 (≈ 655 µM) | 160 (≈ 655 µM) | 160 (≈ 655 µM) | 310 (≈ 1270 µM) | > 2500 | > 2000 | 1250 (≈ 5120 µM) | > 2500 |  |  |  |  |  | 
